Experimental data published in ChEMBL document CHEMBL4261596, “Growth inhibition of human ovarian carcinoma by a novel AvidinOX-anchored biotinylated camptothecin derivative” (Bioorg Med Chem Lett, 2018).
Active and inactive are the calls of the source. No cut-off for these calls is given here.

Experiments:
SK-OV-3 [1] = test: Antitumor activity against human SKOV3 cells xenografted in intratumorally dosed Nu/Nu mouse assessed as inhibition of tumor volume administered as single dose and monitored for 2 weeks starting from day 18 post tumor injection and measured after 32 days post dose; format: functional
[2] = molecular target: Streptavidin (Streptomyces avidinii) (UniProt P22629); test: Binding affinity to Streptomyces avidinii streptavidin assessed as reduction in biotinylated-alkaline phosphatase (unknown origin) binding at 1 to 1000 uM by ELISA
Streptavidin (Streptomyces avidinii), sequence (P22629 whole entry): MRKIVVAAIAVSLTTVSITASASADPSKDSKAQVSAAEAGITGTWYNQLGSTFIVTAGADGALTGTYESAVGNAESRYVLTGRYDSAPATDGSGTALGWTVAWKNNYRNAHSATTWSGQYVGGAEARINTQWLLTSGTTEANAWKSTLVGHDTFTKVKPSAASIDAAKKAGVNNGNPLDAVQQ

Mus musculus [3] = test: Toxicity in Nu/Nu intratumorally dosed mouse xenografted with human […] cells assessed as effect on body weight administered as single dose starting from day 18 post tumor injection and measured for 50 days post dose using avidinOX conjugated compound; format: organism-based; settings: in vivo, other, 1200 h
SK-OV-3 [4] = test: Antitumor activity against human SKOV3 cells xenografted in intratumorally dosed Nu/Nu mouse assessed as inhibition of tumor volume administered as single dose and monitored for 2 weeks starting from day 18 post tumor injection and measured after 32 days post dose using avidinOX conjugated compound; format: functional
A-431 = test: Antiproliferative activity against human A431 cells; format: functional, cell-based
Mus musculus [5] = test: Toxicity in Nu/Nu intratumorally dosed mouse xenografted with human […] cells assessed as effect on body weight administered as single dose starting from day 18 post tumor injection and measured for 50 days post dose; format: organism-based; settings: in vivo, other, 1200 h

In the case of `CC[C@@]1(OC(=O)OCCSSCCNC(=O)CCCC[C@@H]2SC[C@@H]3NC(=O)N[C@@H]32)C(=O)OCc2c1cc1n(c2=O)Cc2c-1nc1ccccc1c2/C=N/OC(C)(C)C`, the TGI (SK-OV-3 [1]) is reported as 48%, the Activity [2] is reported as “Active” and the Activity (Mus musculus [3]) is reported as “Non-Toxic”. For the same compound, the TGI (SK-OV-3 [4]) was 68%, the IC50 (A-431) was 9.2 nM and the Activity (Mus musculus [5]) was “Non-Toxic”.
